The target of one experiment is T1, CDK4/CyclinD1 (Homo sapiens, UniProt P11802).
T1 construct: purchased Invitrogen
The experiment can be described thus: CDK4/CyclinD1 kinase activity test (LANCE Ultra TR-FRET). Conditions: 350 μM ATP, 25° C., 120 minutes; read-out: Enzyme activity data (IC50) CDK4/cyclinD1. It is filed as biochemical. The protocol:
Experimental materials: CDK4/CyclinD1 kinase was purchased from Invitrogen, reaction substrate LANCE Ultra ULight™-4E-BP-1 (Thr37146) Peptide and EU-ANTI-P-4EBP1 (THR37/46) were purchased from PerkinElmer. Nivo Multilabel Analyzer (PerkinElmer).
(§1) Experimental method: preparation of kinase buffer: The components of the buffer include: 50 mM of hydroxyethylpiperazine […] solution with pH 7.5, 1 mM of EDTA, 10 mM of magnesium chloride, 0.01% lauryl polyoxyethylene ether (Brij-35), 2 mM of enzyme dithiothreitol, kinase buffer dilution enzyme, substrate LANCE Ultra ULight™-4E-BP-1 (Thr37146) Peptide, adenosine triphosphate and inhibitor. […] The reaction system was continued at 25° C. for 120 minutes. After the reaction was complete, a mixture of 5 μL of EDTA and 2× LANCE™ Detection Buffer (1:1) was added to each well, and reacted at 25° C. for 5 minutes, after the reaction was complete, 5 μL of LANCE Ultra Eu-anti-P-4E-BP1(Thr37MS) (4 nM) was added to each well, and reacted at 25° C. for 60 minutes, the reaction signal was detected by Nivo instrument according to the principle of time-resolved fluorescence resonance energy transfer.
(§2) Table 1 provides the enzymatic inhibitory activities of the compounds of the present invention on CDK2/CyclinA2, CDK2/CyclinE1, CDK4/CyclinD1, CDK6/CyclinD1, CDK9/CyclinT1.
(In general: Time-resolved FRET reads energy transfer from a long-lived donor to a nearby acceptor.)

For another experiment, the target named is T2, CDK2/CyclinA2 (Homo sapiens, UniProt P24941).
T2 construct: purchased Promega
The experiment can be described thus: CDK2/CyclinA2 kinase activity test (ADP-Glo). It is filed as biochemical. To be noted: 50 μM ATP, 25° C., 60 minutes; read-out: Enzyme activity data (IC50) CDK2/cyclinA. The protocol:
Experimental materials: CDK2/CyclinA2 kinase detection kit was purchased from Promega. Nivo Multilabel Analyzer (PerkinElmer).
Experimental method: Kinase buffer dilution enzyme in the kit, substrate, adenosine triphosphate and inhibitor were used. The compounds to be tested were diluted 5-fold to the 8th concentration with a row gun, that is, from 50 μM to 0.65 nM, the concentration of DMSO was 5%, and a double-replicate well experiment was set up. 1 μL of each concentration gradient of inhibitor, 2 μL of CDK2/CyclinA2 enzyme (1.6 ng), and 2 μL of a mixture of substrate and ATP (50 μM of adenosine triphosphate, 0.1 μg/μL of substrate) were added to the microplate, and at this time, the final concentration gradient of compound was diluted from 10 μM to 0.13 nM. The reaction system was placed at 25° C. and reacted for 60 minutes. After the reaction was complete, 5 μL of ADP-Glo reagent was added to each well, and the reaction was continued at 25° C. for 40 minutes. At the end of the reaction, 10 μL of kinase detection reagent was added to each well. After the reaction was continued at 25° C. for 30 minutes, the chemiluminescence was read by a multi-label analyzer with an integration time of 0.5 seconds.
Using the equation (Sample−Min)/(Max−Min)×100% to convert the original data into inhibition rate, the IC50 value can be obtained by curve fitting with four parameters (obtained by the mode of log(inhibitor) vs. response—Variable slope in GraphPad Prism). Table 1 provides the enzymatic inhibitory activities of the compounds of the present invention on CDK2/CyclinA2, CDK2/CyclinE1, CDK4/CyclinD1, CDK6/CyclinD1, CDK9/CyclinT1.
(In general: In ADP-Glo the light output rises with the ADP produced.)

The next experiment concerns the target T3, CDK6/CyclinD1 (Homo sapiens, UniProt Q00534).
T3 construct: purchased Carna
The experiment can be described thus: CDK6/CyclinD1 kinase activity test (LANCE Ultra TR-FRET). It is filed as biochemical. Conditions: 250 μM ATP, 25° C., 120 minutes; read-out: Enzyme activity data (IC50) CDK6/cyclinD1. The procedure:
Experimental materials: CDK6/CyclinD1 kinase was purchased from Carna, reaction substrate LANCE Ultra ULight™-4E-BP-1 (Thr37146) Peptide and EU-ANTI-P-4EBP1 (THR37/46) were purchased from PerkinElmer. Nivo Multilabel Analyzer (PerkinElmer).
as §1, §2

For the next experiment, the target named is T4, CDK9/CyclinT1 (Homo sapiens, UniProt P50750).
T4 construct: purchased Carna
Kind of experiment: CDK9/CyclinT1 kinase activity assay (ADP-Glo). It counts as biochemical. To be noted: 100 μM ATP, 25° C., 60 minutes; read-out: Enzyme activity data (IC50) CDK9/CyclinT1. The procedure:
Experimental materials: CDK9/CyclinT1 kinase was purchased from Carna, the ADP-Glo detection kit was purchased from Promega, the PKDTide substrate and kinase reaction buffer were purchased from Signalchem. Nivo Multilabel Analyzer (PerkinElmer).
Experimental method: Kinase buffer dilution enzyme in the kit, substrate, adenosine triphosphate and inhibitor were used. […] The reaction system was placed at 25° C. and reacted for 60 minutes. After the reaction was complete, 5 μL of ADP-Glo reagent was added to each well, and the reaction was continued at 25° C. for 40 minutes. At the end of the reaction, 10 μL of kinase detection reagent was added to each well. After the reaction was continued at 25° C. for 30 minutes, the chemiluminescence was read by a multi-label analyzer with an integration time of 0.5 seconds.
as §2

In a further experiment the test system is MDA-MB-468 cells. Kind of experiment: MDA-MB-468 cell activity test (CellTiter-Glo). To be noted: Homo sapiens, 168 h; MDA-MB-468 cells (Rb-negative), 7 days; read-out: Antiproliferative activity (IC50) MDA-MB-468. It counts as cell-based. The procedure: Experimental materials: L15 medium, fetal bovine serum, penicillin/streptomycin antibiotics were purchased from Vicente. CellTiter-Glo (chemiluminescence detection reagent for cell viability) reagent was purchased from Promega. The MDA-MB-468 cell line was purchased from Cobioer Biosciences Co., Ltd. Nivo Multilabel Analyzer (PerkinElmer).
(§3) Experimental method: MDA-MB-468 cells were seeded in a white 96-well plate, 80 μL of cell suspension per well, which contained 1000 MDA-MB-468 cells. The cell plate was incubated overnight in a carbon dioxide incubator. The compounds to be tested were diluted 5-fold to the 9th concentration with a row gun, that is, from 10 mM to 25.6 nM, and a double-replicate well experiment was set up. 78 μL of medium was added to the middle plate, and then transferred 2 μL per well of the gradient diluted compound to the middle plate according to the corresponding position, mixed well and transferred 20 μL per well to the cell plate. The concentration of compound transferred to the cell plate ranged from 50 μM to 0.128 nM. The cell plate was incubated in a carbon dioxide incubator for 7 days. Another cell plate was prepared, and the signal value was read as the maximum value (Max value in the equation below) on the day of drug addition to participate in data analysis. 25 μL of chemiluminescence detection reagent for cell viability was added to each well of the cell plate, and incubated at room temperature for 10 minutes to stabilize the luminescence signal. A multi-label analyzer was used for reading.
Data analysis: Using the equation (Sample−Min)/(Max−Min)×100% to convert the original data into inhibition rate, the IC50 value can be obtained by curve fitting with four parameters (obtained by the mode of log(inhibitor) vs. response—Variable slope in GraphPad Prism).
In general terms: In ATP-based viability assays light output follows the ATP content of the culture.

In another experiment the test system is HCT116 cells. Kind of experiment: HCT116 cell activity test (CellTiter-Glo). It is filed as cell-based. Conditions: Homo sapiens, HCT-116, 96 h, 4 days, read-out: Antiproliferative activity (IC50) HCT 116. The protocol: Experimental materials: McCoy' 5a medium, fetal bovine serum, and penicillin/streptomycin antibiotics were purchased from Vicente. CellTiter-Glo (chemiluminescence detection reagent for cell viability) reagent was purchased from Promega. The HCT116 cell line was purchased from Cobioer Biosciences Co., Ltd. Nivo Multilabel Analyzer (PerkinElmer).
as §3, with “method: HCT116” for “method: MDA-MB-468”, “1000 HCT116” for “1000 MDA-MB-468”, “from 2” for “from 10”, “to 5.12” for “to 25.6”, “plate. […]” for “plate. The concentration of compound transferred to the cell plate ranged from 50 μM to 0.128 nM. The cell plate was incubated in a carbon dioxide incubator for 7 days.”, “reading. […]” for “reading.”

The next experiment has as its system HCC1806 cells. The experiment can be described thus: HCC1806 cell activity test (CyQUANT). To be noted: Homo sapiens, 168 h, 7 days, read-out: Antiproliferative activity (IC50) HCC1806. It counts as cell-based. The protocol:
Experimental materials: RPMI-1640 medium, fetal bovine serum, penicillin/streptomycin antibiotics were purchased from Vicente. CyQUANT Cell Proliferation Assays (Cell proliferation assay kit) reagents were purchased from ThermoFisher. The HCC1806 cell line was purchased from Cobioer Biosciences Co., Ltd. Nivo Multilabel Analyzer (PerkinElmer).
Experimental method: HCC1806 cells were seeded in a white 96-well plate, 80 μL of cell suspension per well, which contained 3000 HCC1806 cells. The cell plate was incubated overnight in a carbon dioxide incubator. The compounds to be tested were diluted 5-fold to the 9th concentration with a row gun, that is, from 10 mM to 25.6 nM, and a double-replicate well experiment was set up. 78 μL of medium was added to the middle plate, and then transferred 2 μL per well of the gradient diluted compound to the middle plate according to the corresponding position, mixed well and transferred 20 μL per well to the cell plate. […] After reaching the incubation time, the cell supernatant was removed, and the cell plate was placed in a −80° C. refrigerator for 1 hour, after which 100 μL of Cyquant reagent was added to each well, and a multi-label analyzer was used for reading. Another cell plate was prepared, and the signal value was read as the maximum value (Max value in the equation below) on the day of drug addition to participate in data analysis. […]

T1 sequence (P11802 whole entry): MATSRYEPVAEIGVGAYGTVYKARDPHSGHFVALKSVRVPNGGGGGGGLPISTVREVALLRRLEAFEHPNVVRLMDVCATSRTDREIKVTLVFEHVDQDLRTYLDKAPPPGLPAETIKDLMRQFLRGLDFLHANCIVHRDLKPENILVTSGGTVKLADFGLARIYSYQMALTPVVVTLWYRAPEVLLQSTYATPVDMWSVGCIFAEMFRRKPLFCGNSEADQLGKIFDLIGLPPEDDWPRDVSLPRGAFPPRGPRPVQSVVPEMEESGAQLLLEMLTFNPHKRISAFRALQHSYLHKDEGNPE
T1 sequence (P24385 whole entry partner): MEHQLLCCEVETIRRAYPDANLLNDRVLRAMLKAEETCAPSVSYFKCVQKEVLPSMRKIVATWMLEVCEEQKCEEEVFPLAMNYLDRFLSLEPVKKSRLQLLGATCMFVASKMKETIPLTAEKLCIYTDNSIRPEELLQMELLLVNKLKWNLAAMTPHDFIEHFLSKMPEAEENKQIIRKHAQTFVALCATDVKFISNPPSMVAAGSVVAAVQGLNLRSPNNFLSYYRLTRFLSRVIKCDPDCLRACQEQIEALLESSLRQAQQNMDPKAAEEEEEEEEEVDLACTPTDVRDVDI
T3 sequence (Q00534 whole entry): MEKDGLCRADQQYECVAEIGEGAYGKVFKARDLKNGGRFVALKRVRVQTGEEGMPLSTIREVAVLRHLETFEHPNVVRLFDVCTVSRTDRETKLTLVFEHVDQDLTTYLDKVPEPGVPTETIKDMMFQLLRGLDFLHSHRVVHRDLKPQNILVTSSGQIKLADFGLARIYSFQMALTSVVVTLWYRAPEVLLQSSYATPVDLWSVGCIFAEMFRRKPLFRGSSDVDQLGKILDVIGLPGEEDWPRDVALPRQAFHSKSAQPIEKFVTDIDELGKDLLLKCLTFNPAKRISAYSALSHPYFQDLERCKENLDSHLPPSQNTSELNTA
T3 sequence (P24385 whole entry partner): as the sequence (P24385 whole entry partner) above
T4 sequence (P50750 whole entry): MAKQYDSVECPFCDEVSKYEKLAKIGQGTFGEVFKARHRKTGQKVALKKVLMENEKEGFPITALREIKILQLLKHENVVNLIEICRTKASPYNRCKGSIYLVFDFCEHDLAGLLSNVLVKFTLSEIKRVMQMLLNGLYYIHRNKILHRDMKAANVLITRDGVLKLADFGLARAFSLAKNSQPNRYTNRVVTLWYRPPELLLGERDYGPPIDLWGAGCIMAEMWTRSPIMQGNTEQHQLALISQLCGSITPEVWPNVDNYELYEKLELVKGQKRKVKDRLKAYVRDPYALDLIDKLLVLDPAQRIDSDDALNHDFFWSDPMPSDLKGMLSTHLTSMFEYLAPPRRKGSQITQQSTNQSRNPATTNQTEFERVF
T4 sequence (O60563 whole entry partner): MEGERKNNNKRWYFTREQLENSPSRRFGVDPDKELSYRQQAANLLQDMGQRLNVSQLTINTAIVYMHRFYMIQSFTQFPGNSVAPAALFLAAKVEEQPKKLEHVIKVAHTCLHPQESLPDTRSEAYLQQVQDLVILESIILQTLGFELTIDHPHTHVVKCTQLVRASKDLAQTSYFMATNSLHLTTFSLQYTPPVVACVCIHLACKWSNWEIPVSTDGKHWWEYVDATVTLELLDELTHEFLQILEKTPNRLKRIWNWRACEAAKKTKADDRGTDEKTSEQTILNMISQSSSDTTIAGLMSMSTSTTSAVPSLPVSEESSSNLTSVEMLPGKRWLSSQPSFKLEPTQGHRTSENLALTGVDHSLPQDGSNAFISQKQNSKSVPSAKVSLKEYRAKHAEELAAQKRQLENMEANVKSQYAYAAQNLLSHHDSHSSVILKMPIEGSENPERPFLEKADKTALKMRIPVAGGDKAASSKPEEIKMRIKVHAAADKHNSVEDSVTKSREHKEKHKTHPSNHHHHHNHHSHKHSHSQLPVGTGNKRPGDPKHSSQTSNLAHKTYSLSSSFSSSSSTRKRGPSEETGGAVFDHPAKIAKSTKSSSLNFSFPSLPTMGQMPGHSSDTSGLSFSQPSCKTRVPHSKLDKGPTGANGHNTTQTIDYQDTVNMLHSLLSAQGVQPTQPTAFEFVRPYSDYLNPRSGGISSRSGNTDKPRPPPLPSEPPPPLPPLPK

For the compound `C[C@@]1(O)CCC[C@H]1N1C(=O)CCc2cnc(NC3CCN(S(=O)(=O)C4CC4)CC3)nc21` [Compound 3], the IC50 at CDK4/CyclinD1 is 23.6 nM; at CDK2/CyclinA2, 1.18 nM; on CDK6/CyclinD1 it was 4.74 nM.
On the same counts, the results for `CCS(=O)(=O)N1CCC(Nc2ncc3c(n2)N([C@@H]2CCC[C@@]2(C)O)C(=O)CC3)CC1` [Compound 4] are 37.5 nM, 1.32 nM and 5.42 nM.
On the same counts, the results for `CC(C)S(=O)(=O)N1CCC(Nc2ncc3c(n2)N([C@@H]2CCC[C@@]2(C)O)C(=O)CC3)CC1` [Compound 5] are 46.9 nM, 1.74 nM and 8.95 nM.
On the same counts, the results for `COCCS(=O)(=O)N1CCC(Nc2ncc3c(n2)N([C@@H]2CCC[C@@]2(C)O)C(=O)CC3)CC1` [Compound 6] are 38.1 nM, 1.13 nM and 5.26 nM.
Turning to `C[C@@]1(O)CCC[C@H]1N1C(=O)CCc2cnc(NC3CCN(S(=O)(=O)C4CNC4)CC3)nc21` [Compound 7], the figures for the IC50 at CDK4/CyclinD1, at CDK2/CyclinA2 and at CDK6/CyclinD1 were 3.99 nM, 1.4 nM and 1.52 nM, respectively.
On the same counts, the results for `CCN1CC(S(=O)(=O)N2CCC(Nc3ncc4c(n3)N([C@@H]3CCC[C@@]3(C)O)C(=O)CC4)CC2)C1` [Compound 8] are 14.9 nM, 1.78 nM and 3.4 nM.
On the same counts, the results for `CC(C)N1CC(S(=O)(=O)N2CCC(Nc3ncc4c(n3)N([C@@H]3CCC[C@@]3(C)O)C(=O)CC4)CC2)C1` [Compound 9] are 15.7 nM, 1.4 nM and 3.69 nM.
On the same counts, the results for `CN1CC(S(=O)(=O)N2CCC(Nc3ncc4c(n3)N([C@@H]3CCC[C@@]3(C)O)C(=O)CC4)CC2)C1` [Compound 10] are 9.09 nM, 1.52 nM and 2.65 nM.
On to `C[C@@]1(O)CCC[C@H]1n1c(=O)c(C(F)F)cc2cnc(NC3CCN(S(C)(=O)=O)CC3)nc21` [PF-06873600, reference compound], for which the IC50 at CDK9/CyclinT1 worked out at 17.2 nM; in the experiment with MDA-MB-468 cells, 120 nM; in the experiment on HCT116 cells, 140 nM; with HCC1806 cells it was 458 nM.

The values are drawn from patent US12679837B2, “Aminopyrimidine compound as CDK2/4/6 triple inhibitor” (CISEN PHARMACEUTICAL CO., LTD, priority 2019, dated 2026).
